In the assay the target is T1, MAGE-A11:PCF11 interaction (GST-MAGE-A11 and FAM-PCF11_4) (Homo sapiens, UniProt P43364).
T1 construct: GST-MAGE-A11 MHD (human MAGE-A11 MHD amino acid 218-429); made in house; host or cells: E. coli BL21(DE3)
T1 sequence (P43364 218-429): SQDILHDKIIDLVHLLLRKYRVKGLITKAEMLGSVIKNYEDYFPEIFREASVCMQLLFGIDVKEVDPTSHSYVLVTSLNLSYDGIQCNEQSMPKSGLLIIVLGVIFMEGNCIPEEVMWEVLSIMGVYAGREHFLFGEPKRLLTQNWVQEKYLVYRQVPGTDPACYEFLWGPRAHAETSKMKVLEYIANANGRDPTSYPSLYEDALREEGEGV
Put plainly: TR-FRET primary / single point screen at 15 µM. Type of assay: binding. Put shortly:
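TR-FRET 520/490 nm emission ratio was read after 90 min at room temperature. Wells held 5 nM GST-MAGE-A11, 5 nM Tb-anti-GST, 200 nM FAM-PCF11_4 and 15 µM compound in Tris pH 7.5 buffer with MgCl2, BSA and DTT. %Inhibition was scaled to DMSO and minus-MAGE-A11 controls.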

Where [1] appears, read: single point TR-FRET screening of 797 quinoline compounds against MAGE-A11:PCF11.
The mark [2] stands for this setting: single point TR-FRET screening of quinoline compounds against MAGE-A11:PCF11, 15 µM.

The record followed here is article PMC7529893, “Structural basis for substrate recognition and chemical inhibition of oncogenic MAGE ubiquitin ligases” (Nature Communications, 2020).

With `Clc1ccc2c(NCCCCN(Cc3ccccc3)Cc3ccsc3)ccnc2c1` [SJ000312689], the “percent inhibition (TR-FRET)” value under setting [1] is recorded as 16.2962.

Regarding `Clc1ccc2c(NCCCCN(Cc3ccccc3)Cc3ccccn3)ccnc2c1` [SJ000312690], the “percent inhibition (TR-FRET)” value under setting [1] is reported as 9.5313.

`Clc1ccc2c(NCCCCN(Cc3ccccc3)Cc3ccc[nH]3)ccnc2c1` [SJ000312692]: the “percent inhibition (TR-FRET)” value under setting [1] is 28.2792.

Regarding `COc1cccc(CN(CCCCNc2ccnc3cc(Cl)ccc23)Cc2ccccc2)c1O` [SJ000312694], under setting [1], the “percent inhibition (TR-FRET)” value worked out at 7.676.

As to `COc1ccc(O)c(CN(CCCCNc2ccnc3cc(Cl)ccc23)Cc2ccccc2)c1` [SJ000312696], under setting [1], the “percent inhibition (TR-FRET)” value is listed as 6.634.

In the case of `Oc1ccccc1CN(CCCCNc1ccnc2cc(Cl)ccc12)Cc1ccccc1` [SJ000312697], under setting [1], the “percent inhibition (TR-FRET)” value is given as 24.8344.

Turning to `COc1ccccc1N1CCN(c2c(S(=O)(=O)c3ccccc3)cnc3ccc(C)cc23)CC1` [SJ000315081], the “percent inhibition (TR-FRET)” value under setting [1] is -19.5512.

Consider `Cc1ccc2ncc(S(=O)(=O)c3ccccc3)c(N3CCN(c4ccccc4F)CC3)c2c1` [SJ000315092], for which, under setting [1], the “percent inhibition (TR-FRET)” value is -33.4837.

As to `O=S(=O)(c1ccccc1)c1cnc2ccc(F)cc2c1N1CCN(c2ccccc2F)CC1` [SJ000315166], the “percent inhibition (TR-FRET)” value under setting [1] is on record as -99.0552.

Take `O=S(=O)(c1ccccc1)c1cnc2ccc(Cl)cc2c1N1CCN(c2ccccc2F)CC1` [SJ000315176]: the “percent inhibition (TR-FRET)” value under setting [1] was -5.441.

Consider `COc1ccc2ncc(S(=O)(=O)c3ccccc3)c(N3CCN(c4ccccc4F)CC3)c2c1` [SJ000315263], for which the “percent inhibition (TR-FRET)” value under setting [1] is -252.464.

Take `CCCCN(CCCC)CC(=O)Nc1c2c(nc3ccccc13)N(C)CC2` [SJ000331523]: under setting [1], the “percent inhibition (TR-FRET)” value worked out at 2.503.

`CCN(CC)CC(=O)Nc1c2c(nc3ccccc13)N(C)CC2` [SJ000331537]: the “percent inhibition (TR-FRET)” value under setting [1] is 11.7837.

On to `CN(C)CC(=O)Nc1c2c(nc3ccccc13)N(C)CC2` [SJ000332030], for which the “percent inhibition (TR-FRET)” value under setting [1] is listed as 17.0397.

Take `CCCN(CCCNc1ccnc2cc(Cl)ccc12)Cc1ccccc1` [SJ000357431]: the “percent inhibition (TR-FRET)” value under setting [2] worked out at 19.1371.

`CCCN(CCCNc1ccnc2cc(Cl)ccc12)Cc1ccc(C)s1` [SJ000357433]: under setting [2], the “percent inhibition (TR-FRET)” value is 16.5062.

Turning to `CCCN(CCCNc1ccnc2cc(Cl)ccc12)Cc1ccc(C)o1` [SJ000357437], under setting [2], the “percent inhibition (TR-FRET)” value is 20.147.

In the case of `CCCN(CCCNc1ccnc2cc(Cl)ccc12)Cc1sccc1C` [SJ000357439], under setting [2], the “percent inhibition (TR-FRET)” value is recorded as 19.7269.

Turning to `Cc1ccsc1CN(CCCNc1ccnc2cc(Cl)ccc12)Cc1ccccc1` [SJ000357440], the “percent inhibition (TR-FRET)” value under setting [2] stood at 10.905.

With `CCCN(CCCNc1ccnc2cc(Cl)ccc12)Cc1ccoc1` [SJ000357442], under setting [2], the “percent inhibition (TR-FRET)” value was determined as 6.2139.

On to `CCCN(CCCNc1ccnc2cc(Cl)ccc12)Cc1ccc[nH]1` [SJ000357445], for which the “percent inhibition (TR-FRET)” value under setting [2] was 10.3448.

For `CCCN(CCCNc1ccnc2cc(Cl)ccc12)Cc1cccnc1` [SJ000357446], under setting [2], the “percent inhibition (TR-FRET)” value was 7.809.

`CCCN(CCCNc1ccnc2cc(Cl)ccc12)Cc1ccncc1` [SJ000357449]: the “percent inhibition (TR-FRET)” value under setting [2] amounted to 9.295.

As for `CCCN(CCCNc1ccnc2cc(Cl)ccc12)Cc1nccs1` [SJ000357454], under setting [2], the “percent inhibition (TR-FRET)” value worked out at 11.9552.

Take `CCCN(CCCNc1ccnc2cc(Cl)ccc12)Cc1ccco1` [SJ000357458]: the “percent inhibition (TR-FRET)” value under setting [2] was 3.483.

Turning to `Clc1ccc2c(NCCCN(Cc3ccccc3)Cc3ccc(Br)s3)ccnc2c1` [SJ000357461], the “percent inhibition (TR-FRET)” value under setting [2] came out at 27.4987.

Take `COc1ccc(O)c(CN(CCCNc2ccnc3cc(Cl)ccc23)Cc2ccccc2)c1` [SJ000357463]: under setting [2], the “percent inhibition (TR-FRET)” value stood at 14.1686.

As for `COc1cccc(CN(CCCNc2ccnc3cc(Cl)ccc23)Cc2ccccc2)c1O` [SJ000357465], the “percent inhibition (TR-FRET)” value under setting [2] stood at 13.1749.

As for `CC(C)CN(CCCNc1ccnc2cc(Cl)ccc12)Cc1ccccc1` [SJ000357468], the “percent inhibition (TR-FRET)” value under setting [2] amounted to 18.7467.

With `CC(C)CN(CCCCNc1ccnc2cc(Cl)ccc12)Cc1ccccc1` [SJ000357470], the “percent inhibition (TR-FRET)” value under setting [1] came to 25.4682.

For `Clc1ccc2c(NC3CCN(CC4CC4)CC3)ccnc2c1` [SJ000357481], the “percent inhibition (TR-FRET)” value under setting [1] was 3.973.

Turning to `Clc1ccc2c(NCCCN(Cc3ccccc3)CC3CC3)ccnc2c1` [SJ000357483], the “percent inhibition (TR-FRET)” value under setting [2] came out at 21.0583.

Consider `Clc1ccc2c(NCCCCN(Cc3ccccc3)CC3CC3)ccnc2c1` [SJ000357485], for which the “percent inhibition (TR-FRET)” value under setting [1] amounted to 18.3422.

Take `COc1ccc(F)cc1CN1CCC(Nc2ccnc3cc(Cl)ccc23)CC1` [SJ000357493]: the “percent inhibition (TR-FRET)” value under setting [1] amounted to 6.1527.

`CCCN(CCCNc1ccnc2cc(Cl)ccc12)Cc1cc(F)ccc1OC` [SJ000357494]: the “percent inhibition (TR-FRET)” value under setting [2] is on record as 17.0835.

Turning to `COc1ccc(F)cc1CN(CCCNc1ccnc2cc(Cl)ccc12)Cc1ccccc1` [SJ000357495], the “percent inhibition (TR-FRET)” value under setting [2] worked out at 6.683.

On to `COc1ccc(F)cc1CN(CCCCNc1ccnc2cc(Cl)ccc12)Cc1ccccc1` [SJ000357496], for which the “percent inhibition (TR-FRET)” value under setting [1] worked out at 20.7772.

On to `COc1cccc(F)c1CN1CCC(Nc2ccnc3cc(Cl)ccc23)CC1` [SJ000357498], for which the “percent inhibition (TR-FRET)” value under setting [1] was 10.503.

On to `CCCN(CCCNc1ccnc2cc(Cl)ccc12)Cc1c(F)cccc1OC` [SJ000357499], for which, under setting [2], the “percent inhibition (TR-FRET)” value was 19.4021.

As to `COc1cccc(F)c1CN(CCCNc1ccnc2cc(Cl)ccc12)Cc1ccccc1` [SJ000357500], the “percent inhibition (TR-FRET)” value under setting [2] was -2.857.

Take `COc1cccc(F)c1CN(CCCCNc1ccnc2cc(Cl)ccc12)Cc1ccccc1` [SJ000357501]: the “percent inhibition (TR-FRET)” value under setting [1] was found to be 5.094.

With `Oc1c(F)cc(F)cc1CN(CCCNc1ccnc2cc(Cl)ccc12)Cc1ccccc1` [SJ000357504], the “percent inhibition (TR-FRET)” value under setting [2] was 27.6387.

As to `Oc1c(F)cc(F)cc1CN(CCCCNc1ccnc2cc(Cl)ccc12)Cc1ccccc1` [SJ000357506], the “percent inhibition (TR-FRET)” value under setting [1] was 30.6494.

In the case of `Clc1ccc2c(NC3CCN(Cc4ccc(Br)o4)CC3)ccnc2c1` [SJ000357512], the “percent inhibition (TR-FRET)” value under setting [1] is -4.381.

In the case of `Clc1ccc2c(NC3CCN(Cc4ccccc4)CC3)ccnc2c1` [SJ000357524], under setting [1], the “percent inhibition (TR-FRET)” value is listed as 6.554.

Consider `COc1cccc(CN2CCC(Nc3ccnc4cc(Cl)ccc34)CC2)c1O` [SJ000357525], for which the “percent inhibition (TR-FRET)” value under setting [1] was 9.995.

As for `COc1ccc(O)c(CN2CCC(Nc3ccnc4cc(Cl)ccc34)CC2)c1` [SJ000357527], the “percent inhibition (TR-FRET)” value under setting [1] was 7.779.

In the case of `Oc1ccccc1CN1CCC(Nc2ccnc3cc(Cl)ccc23)CC1` [SJ000357529], the “percent inhibition (TR-FRET)” value under setting [1] stood at 22.1466.

On to `CC(C)(C)CCN(CCCCNc1ccnc2cc(Cl)ccc12)Cc1ccccc1` [SJ000357537], for which, under setting [1], the “percent inhibition (TR-FRET)” value was determined as 34.5391.

With `CCCCN(CCCCNc1ccnc2cc(Cl)ccc12)Cc1ccccc1` [SJ000357538], the “percent inhibition (TR-FRET)” value under setting [1] worked out at 27.6387.

In the case of `Clc1ccc2c(NCCCCN(CCOCc3ccccc3)Cc3ccccc3)ccnc2c1` [SJ000357543], the “percent inhibition (TR-FRET)” value under setting [1] is on record as -15.9162.

Regarding `CCCN(CCCNc1ccnc2cc(Cl)ccc12)CC(C)C` [SJ000357568], the “percent inhibition (TR-FRET)” value under setting [2] is on record as 11.4525.

Consider `CCCN(CCCNc1ccnc2cc(Cl)ccc12)CCC(C)(C)C` [SJ000357570], for which the “percent inhibition (TR-FRET)” value under setting [2] amounted to 12.1149.

Consider `CCCCN(CCC)CCCNc1ccnc2cc(Cl)ccc12` [SJ000357571], for which the “percent inhibition (TR-FRET)” value under setting [2] was 12.7774.

In the case of `CCCN(CCCNc1ccnc2cc(Cl)ccc12)CCC(C)c1ccccc1` (stereo not shown) [SJ000357573], the “percent inhibition (TR-FRET)” value under setting [2] is 24.9781.

As for `CCCN(CCCNc1ccnc2cc(Cl)ccc12)CCc1ccccc1` [SJ000357574], the “percent inhibition (TR-FRET)” value under setting [2] amounted to 4.8836.

For `CCCN(CCCNc1ccnc2cc(Cl)ccc12)CCCSC` [SJ000357576], the “percent inhibition (TR-FRET)” value under setting [2] was 7.824.

As to `CCCN(CCCNc1ccnc2cc(Cl)ccc12)CCOCc1ccccc1` [SJ000357577], the “percent inhibition (TR-FRET)” value under setting [2] is given as -13.1805.

For `CC(C)(C)CCN(CCCNc1ccnc2cc(Cl)ccc12)Cc1ccccc1` [SJ000357578], the “percent inhibition (TR-FRET)” value under setting [2] stood at 25.6873.

On to `CCCCN(CCCNc1ccnc2cc(Cl)ccc12)Cc1ccccc1` [SJ000357579], for which the “percent inhibition (TR-FRET)” value under setting [2] came out at 19.3068.

Turning to `Clc1ccc2c(NCCCN(CCc3ccccc3)Cc3ccccc3)ccnc2c1` [SJ000357580], the “percent inhibition (TR-FRET)” value under setting [2] was 14.4057.

Turning to `Clc1ccc2c(NCCCN(CCOCc3ccccc3)Cc3ccccc3)ccnc2c1` [SJ000357583], the “percent inhibition (TR-FRET)” value under setting [2] is given as 13.2411.

Take `CCCN(CCCNc1ccnc2cc(Cl)ccc12)Cc1cccc2c1OCO2` [SJ000357594]: the “percent inhibition (TR-FRET)” value under setting [2] amounted to 18.1434.

In the case of `CCCN(CCCNc1ccnc2cc(Cl)ccc12)Cc1ccccc1OC(F)(F)F` [SJ000357595], the “percent inhibition (TR-FRET)” value under setting [2] is listed as -21.8698.

As to `CCCN(CCCNc1ccnc2cc(Cl)ccc12)Cc1cc(F)cc(F)c1O` [SJ000357597], the “percent inhibition (TR-FRET)” value under setting [2] stood at 15.9573.

Turning to `Clc1ccc2c(NCCCN(Cc3ccccc3)Cc3cccc4c3OCO4)ccnc2c1` [SJ000357598], the “percent inhibition (TR-FRET)” value under setting [2] amounted to 3.49.

Regarding `FC(F)(F)Oc1ccccc1CN(CCCNc1ccnc2cc(Cl)ccc12)Cc1ccccc1` [SJ000357599], under setting [2], the “percent inhibition (TR-FRET)” value was determined as 19.7634.
